Source: ChEMBL document CHEMBL2331321, “Design, synthesis, and biological evaluation of 3-aryl-3-hydroxy-1-phenylpyrrolidine derivatives as novel androgen receptor antagonists” (Bioorg Med Chem, 2013)

Columns and labels:
Androgen receptor [1] = molecular target: T1, Androgen receptor (Homo sapiens, UniProt P10275, T878A)
Description: Agonist activity at Androgen receptor T877A mutant in human LNCaP-hr cells assessed as prostate specific antigen secretion measured after 3 days by enzyme-immunoassay

Androgen receptor [2] = molecular target: T2, Androgen receptor (Homo sapiens, UniProt P10275)
T2 sequence (P10275 whole entry): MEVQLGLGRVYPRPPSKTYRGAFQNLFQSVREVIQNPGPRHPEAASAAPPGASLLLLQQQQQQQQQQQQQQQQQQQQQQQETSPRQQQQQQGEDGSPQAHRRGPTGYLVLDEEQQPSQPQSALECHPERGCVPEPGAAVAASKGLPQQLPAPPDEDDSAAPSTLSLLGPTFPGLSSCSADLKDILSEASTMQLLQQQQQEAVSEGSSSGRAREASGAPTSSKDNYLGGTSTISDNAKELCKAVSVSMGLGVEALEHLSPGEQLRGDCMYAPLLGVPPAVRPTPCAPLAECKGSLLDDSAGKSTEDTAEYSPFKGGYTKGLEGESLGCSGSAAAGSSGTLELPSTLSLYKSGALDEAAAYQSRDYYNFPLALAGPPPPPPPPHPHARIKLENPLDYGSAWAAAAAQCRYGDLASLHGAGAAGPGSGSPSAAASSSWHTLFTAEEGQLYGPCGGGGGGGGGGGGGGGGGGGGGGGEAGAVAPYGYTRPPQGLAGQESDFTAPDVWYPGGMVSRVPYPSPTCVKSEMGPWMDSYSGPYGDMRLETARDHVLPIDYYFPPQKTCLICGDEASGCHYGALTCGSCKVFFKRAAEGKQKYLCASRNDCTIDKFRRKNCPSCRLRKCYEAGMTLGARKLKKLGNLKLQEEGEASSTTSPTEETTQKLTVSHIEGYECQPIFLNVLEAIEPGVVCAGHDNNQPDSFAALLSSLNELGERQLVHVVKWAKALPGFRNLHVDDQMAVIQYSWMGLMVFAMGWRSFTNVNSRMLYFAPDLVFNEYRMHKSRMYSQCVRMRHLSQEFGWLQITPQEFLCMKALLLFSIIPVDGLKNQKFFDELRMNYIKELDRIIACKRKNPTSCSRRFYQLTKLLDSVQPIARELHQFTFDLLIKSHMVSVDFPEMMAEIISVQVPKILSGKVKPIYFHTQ
Description: Agonist activity at wild type Androgen receptor in human LNCaP-hr cells assessed as prostate specific antigen secretion measured after 3 days by enzyme-immunoassay

Androgen receptor [3] = molecular target: T1, Androgen receptor; remark: listed apart in the source
Description: Antagonist activity at Androgen receptor T877A mutant (unknown origin) expressed in human Cos-7 cells co-expressing pGL3-MMTV-luc vector assessed as luciferase activity by reporter gene assay

Androgen receptor [4] = molecular target: T2, Androgen receptor; remark: listed apart in the source
Description: Antagonist activity at wild type Androgen receptor (unknown origin) expressed in human Cos-7 cells co-expressing pGL3-MMTV-luc vector assessed as luciferase activity by reporter gene assay

Androgen receptor [5] = molecular target: T1, Androgen receptor; remark: listed apart in the source
Description: Inhibition of Androgen receptor T877A mutant (unknown origin) expressed in Freestyle293F cells

Androgen receptor [6] = molecular target: T2, Androgen receptor; remark: listed apart in the source
Description: Inhibition of wild type Androgen receptor (unknown origin) expressed in Freestyle293F cells

[7] = AUC in mouse at 30 mg/kg, po; format: ADME, organism-based; parameters: dose 30 mg/kg, route oral; conditions: plasma
[8] = Mean residence time in mouse at 30 mg/kg, po; format: ADME, organism-based; parameters: dose 30 mg/kg, route oral; conditions: in vivo
[9] = Antitumor activity against human LNCaP-hr cells in BALB/c mouse xenograft model assessed as inhibition of tumor growth at 30 mg/kg, po bid for 28 days (reference value: 100%); format: functional
[10] = Antitumor activity against human LNCaP-hr cells in BALB/c mouse xenograft model assessed as inhibition of tumor growth at 10 mg/kg, po bid for 28 days (reference value: 100%); format: functional
[11] = Antitumor activity against human LNCaP-hr cells in BALB/c mouse xenograft model assessed as plasma prostate specific antigen level at 30 mg/kg, po bid for 28 days by ELISA (reference value: 23.8 +/- 6.1 ng/ml); format: functional
[12] = Antitumor activity against human LNCaP-hr cells in BALB/c mouse xenograft model assessed as plasma prostate specific antigen level at 10 mg/kg, po bid for 28 days by ELISA (reference value: 23.8 +/- 6.1 ng/ml); format: functional
[13] = Half life in mouse plasma; format: ADME, cell-free
[14] = Antitumor activity against human LNCaP-hr cells in BALB/c mouse xenograft model assessed as inhibition of tumor growth at 100 mg/kg, po qd for 28 days (reference value: 100%); format: functional
[15] = Antitumor activity against human LNCaP-hr cells in BALB/c mouse xenograft model assessed as plasma prostate specific antigen level at 100 mg/kg, po qd for 28 days by ELISA (reference value: 23.8 +/- 6.1 ng/ml); format: functional

T1 sequence (P10275 whole entry T878A): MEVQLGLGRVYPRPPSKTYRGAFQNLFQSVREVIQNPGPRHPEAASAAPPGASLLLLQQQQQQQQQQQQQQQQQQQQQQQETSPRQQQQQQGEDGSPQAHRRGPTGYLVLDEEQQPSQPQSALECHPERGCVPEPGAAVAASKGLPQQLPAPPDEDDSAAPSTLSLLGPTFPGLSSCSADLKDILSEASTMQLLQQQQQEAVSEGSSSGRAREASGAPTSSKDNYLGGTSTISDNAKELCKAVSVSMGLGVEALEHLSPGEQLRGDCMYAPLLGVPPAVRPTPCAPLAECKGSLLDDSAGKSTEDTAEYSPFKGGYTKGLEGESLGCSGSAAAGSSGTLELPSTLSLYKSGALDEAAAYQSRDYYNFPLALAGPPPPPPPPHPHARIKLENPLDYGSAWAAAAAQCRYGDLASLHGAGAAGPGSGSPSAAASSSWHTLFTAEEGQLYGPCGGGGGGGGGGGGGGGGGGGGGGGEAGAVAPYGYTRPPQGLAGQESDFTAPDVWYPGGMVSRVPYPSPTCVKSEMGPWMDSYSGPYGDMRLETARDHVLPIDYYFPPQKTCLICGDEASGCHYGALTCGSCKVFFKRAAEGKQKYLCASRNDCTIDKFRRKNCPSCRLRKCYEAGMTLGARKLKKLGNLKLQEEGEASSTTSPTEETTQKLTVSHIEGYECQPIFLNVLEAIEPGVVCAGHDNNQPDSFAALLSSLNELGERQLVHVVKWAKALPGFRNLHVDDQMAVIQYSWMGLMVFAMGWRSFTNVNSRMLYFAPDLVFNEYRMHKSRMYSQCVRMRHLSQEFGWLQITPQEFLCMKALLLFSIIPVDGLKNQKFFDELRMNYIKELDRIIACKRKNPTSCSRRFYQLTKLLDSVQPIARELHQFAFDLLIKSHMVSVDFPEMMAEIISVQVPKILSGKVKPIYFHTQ

Structure (SMILES)	EC50 (Androgen receptor [1]) [nM]	EC50 (Androgen receptor [2]) [nM]	IC50 (Androgen receptor [3]) [nM]	IC50 (Androgen receptor [4]) [nM]	IC50 (Androgen receptor [5]) [nM]	IC50 (Androgen receptor [6]) [nM]	other results
N#Cc1ccc(N2CCC(O)(Cc3ccccc3)C2)cc1Cl (configuration not stated)	4800	> 10000	450	1000	59	420	
N#Cc1ccc(N2CCC(O)C2)cc1Cl (configuration not stated)	640	4700	> 10000	82	30	120	
C[C@@H]1N(c2ccc(C#N)c(Cl)c2)CC[C@@]1(O)c1ccc(F)cc1	20	> 10000	> 10000	17	8.1	8	
C[C@@H]1N(c2ccc(C#N)c(Cl)c2)CC[C@@]1(O)c1ccc(C(N)=O)cc1	10000	> 10000	9	17	42	27	
CNC(=O)c1ccc([C@]2(O)CCN(c3ccc(C#N)c(Cl)c3)[C@H]2C)cc1	10000	> 10000	10	8.6	18	32	
CNC(=O)c1ccc([C@]2(O)CCN(c3ccc(C#N)c(Cl)c3)[C@H]2C)nc1	5100	> 10000	100	120	16	68	
CNC(=O)c1ccc([C@]2(O)CCN(c3ccc(C#N)c(Cl)c3)[C@H]2C)cn1	> 10000	> 10000	99	25	100	44	
C[C@@H]1N(c2ccc(C#N)c(Cl)c2)CC[C@@]1(O)c1ccc(C(=O)N(C)C)nc1	> 10000	> 10000	10000	1700	3000	1100	
CNC(=O)c1ccc([C@@]2(O)CCN(c3ccc(C#N)c(Cl)c3)[C@@H]2C)cn1	> 10000	> 10000	1600	6400	97	1600	
C[C@@H]1N(c2ccc(C#N)c(Cl)c2)CC[C@@]1(O)c1ccc(N2CCCC2=O)nc1			160	11	87	13	
CNC(=O)c1ccc([C@]2(O)CCN(c3ccc(C#N)c(OC)c3)[C@H]2C)cn1			730	62	240	120	
CNC(=O)c1ccc([C@]2(O)CCN(c3ccc(C#N)cc3)[C@H]2C)cn1			1400	400	5300	7600	
CNC(=O)c1ccc([C@]2(O)CCN(c3ccc(C#N)c(F)c3)[C@H]2C)cn1			1700	290	1700	830	AUC [7]: 232 µg·h/mL; MRT [8]: 4.07 h; T/C [9]: 18%; T/C [10]: 139%; Activity [11]: 4.3 ng/mL; Activity [12]: 33 ng/mL
N#Cc1ccc(N2CCC(O)(c3ccccc3)C2)cc1Cl (racemic)	> 10000	> 10000	250	380	130	370	
N#Cc1ccc(N2CCC(O)(c3ccc(F)cc3)C2)cc1Cl (racemic)	> 10000	> 10000	65	68	36	180	
C[C@](O)(CS(=O)(=O)c1ccc(F)cc1)C(=O)Nc1ccc(C#N)c(C(F)(F)F)c1 [(R)-BICALUTAMIDE]							half-life [13]: 101 h
C[C@@](O)(CS(=O)(=O)c1ccc(F)cc1)C(=O)Nc1ccc(C#N)c(C(F)(F)F)c1 [(S)-BICALUTAMIDE]							half-life [13]: 19 h
CC(O)(CS(=O)(=O)c1ccc(F)cc1)C(=O)Nc1ccc(C#N)c(C(F)(F)F)c1 (configuration not stated) [BICALUTAMIDE]							T/C [14]: 191%; Activity [15]: 45.6 ng/mL
